{
  "source": "patent US8524978B2",
  "about": "“Composition for production of plant body having improved sugar content, and use thereof” (Japan Science and Technology Agency, priority 2007, dated 2013)",
  "type_in_all_cases": "in vivo",
  "key": {"Fragaria ananassa": {"test_system": "Fragaria ananassa", "test": "Sugar content determination of Fragaria ananassa fruit with refractometer (Example 10)", "conditions": "50 mL of 0.2 or 0.5 mM GSSG, or 0.4 or 0.5 mM GSH, once a week at root; significance level 5%", "method": "First, Fragaria ananassa seedlings were transplanted to a planter. In the planter, 6 L of vermiculite (ASAHI INDUSTRIES Co., LTD.), 3 L of KUREHA horticultural soil (KUREHA CORPORATION), and 3 L of vermiculite were layered as a lower, middle, and upper layers, respectively.\nDuring cultivation of Fragaria ananassa plants, 50 mL of 0.2 mM or 0.5 mM GSSG or 50 mL of 0.4 mM or 0.5 mM GSH (adjusted with 0.1N NaOH to be at pH7) was applied once a week at a root per plant. The plants were grown for 63 days without being subjected to bud removal. For comparison, a Fragaria ananassa plant was grown under the same condition, except that GSSG and GSH were not applied. To the plants of any condition, 3 g of Kumiai phosphorate ammonium nitrate potassium S-604 (Chisso Asahi Fertilizer Co., Ltd.) was applied as an additional fertilizer once in 2 weeks.\nFurther, the fruit obtained was subjected to sugar content determination using “Pocket” Refractometer APAL-1 (ATAGO CO., LTD.). For comparison, fruit not applied with GSSG or GSH was also subjected to the sugar content determination. […] In FIG. 7, the vertical scale indicates sugar content (Brix, unit: %)."}, "Citrus unshiu [1]": {"test_system": "Citrus unshiu", "test": "Citrus unshiu leaf coating with GSSG, sensory test of fruit (Example 9)", "conditions": "leaf surface coated with 0.5 mM one week before harvest", "method": "(§1) In the present example, Citrus unshiu was cultivated. Specifically, one week before an expected date of harvesting Citrus unshiu fruit, a surface of a leaf on a branch having the fruit to be harvested was coated with 0.5 mM GSSG. The fruit was harvested on the expected date.\n(§2) Next, the fruit harvested was subjected to a sensory test of sugar content. As a result, it was determined that the fruit applied with GSSG increased in sugar content and decreased in acidity. Further, it was determined that the fruit applied with GSSG increased in weight. Furthermore, the fruit obtained was subjected to sugar content determination using “Pocket” Refractometer APAL-1 (ATAGO CO., LTD.). For comparison, fruit applied with no GSSG was also subjected to the sugar content determination. […] In FIG. 6, the vertical scale indicates sugar content (Brix, unit: %)."}, "Citrus unshiu [2]": {"test_system": "Citrus unshiu", "test": "Sugar content determination of Citrus unshiu fruit with refractometer (Example 9)", "conditions": "leaf surface coated with 0.5 mM one week before harvest; vs no GSSG; ANOVA 5%", "method": "as §1, §2"}, "[3]": {"test_system": "Zea mays L. var. saccharata Sturt", "test": "Cultivation of Zea mays L. var. saccharata Sturt with GSSG, sensory test (Example 4)", "conditions": "200 mL of 0.5 mM at root twice a week for 12 weeks", "from_the_text": "In the present example, Zea mays L. var. saccharata Sturt was cultivated under a condition different from Example 3 in how to apply GSSG. First, a Zea mays L. var. saccharata Sturt seed (TAKII & CO. Ltd., product number: Canberra 90) was sown in vermiculite (ASAHI INDUSTRIES Co., LTD.). One week after sowing, a Zea mays L. var. saccharata Sturt plant was transplanted to a hydroponic culture pot described in Example 1. To the plant, 3 g of Kumiai phosphorate ammonium nitrate potassium S-604 (Chisso Asahi Fertilizer Co., Ltd.) was applied as an additional fertilizer 4 weeks and 6 weeks after the sowing.\nDuring 12 weeks after germination, 200 mL of 0.5 mM GSSG was applied at a root of the plant twice a week. For comparison, a Zea mays L. var. saccharata Sturt plant was cultivated by the same method as in the present example, except that GSSG was not applied, and fruit thereof was harvested.\nFruit was harvested 12 weeks after the sowing and subjected to a sensory test of sugar content. As a result, it was determined that fruit of the plant applied with GSSG increased in sugar content compared to that of the plant applied with no GSSG. Further, it was determined that the plant applied with GSSG increased in size and number of fruit."}, "Lycopersicum esculentum [4]": {"test_system": "Lycopersicum esculentum", "test": "Change of sugar content over time after one application of GSH or GSSG (Example 6)", "conditions": "50 mL of 0.5 mM once at root 90 days after sowing; fruit harvested day 0 to day 4", "description": "In the present example, a sugar content of a plant was determined after a substance for regulating an oxidation-reduction state of a cell was applied to the plant. The substance for regulating an oxidation-reduction state of a cell was GSH or GSSG. As in the case of Example 1, Lycopersicum esculentum was used as the plant. Specifically, the following operations were carried out.\nNinety days after sowing of Lycopersicum esculentum seeds, Lycopersicum esculentum plants were subjected to a GSH or GSSG treatment. The Lycopersicum esculentum plants were cultivated by the same method as in Example 1 except for the GSH or GSSG treatment. The GSH or GSSG treatment was such that 50 mL of 0.5 mM GSSH or 0.5 mM GSH (adjusted with 0.1N NaOH to be at pH 7) was applied once at a root per plant. Then, fruit of the plants was harvested every day from the 0th day until the 4th day after application of GSH or GSSG, and subjected to sugar content determination. […] FIG. 3 is a graph showing a determination result of relation between sugar content and the number of days from an application day of GSH or GSSG. In FIG. 3, the vertical scale indicates sugar content (Brix, unit: %) and the horizontal scale indicates days from the application day. In FIG. 3, lines labeled with circles, triangles, and squares show results of the plants applied with GSH, GSSG, and no GSH and no GSSG, respectively. […]"}, "Lycopersicum esculentum [5]": {"test_system": "Lycopersicum esculentum", "test": "Cultivation of Lycopersicum esculentum with GSSG or GSH, sensory tests of fruit (Example 1)", "conditions": "50 mL of 0.5 mM at root twice a week, 60 days", "from_the_text": "In the present example, Lycopersicum esculentum was cultivated with use of GSSG or GSH. Details of cultivation are described below.\nFirst, Lycopersicum esculentum seedlings (TAKII & CO. Ltd., product name: Osama tomato reika) were transplanted into a hydroponic culture pot ( 1/2000 a). In the hidroponic culture pot, 6 L of vermiculite (ASAHI INDUSTRIES Co., LTD.), 3 L of KUREHA horticultural soil (KUREHA CORPORATION), and 3 L of vermiculite were layered as a lower, middle, and upper layers, respectively.\nDuring the cultivation of Lycopersicum esculentum, 50 mL of 0.5 mM GSSG or 0.5 mM GSH (adjusted with 0.1N NaOH to be at pH 7) was applied twice a week at a root per plant. The Lycopersicum esculentum plants were grown for 60 days without being subjected to bud removal. Last 10 days was used as a harvest period for harvesting fruit of the plants. For comparison, a Lycopersicum esculentum plant was grown under the same condition, except that GSSG and GSH were not applied. To the plants of any condition, 3 g of Kumiai phosphorate ammonium nitrate potassium S-604 (Chisso Asahi Fertilizer Co., Ltd.) was applied as an additional fertilizer once in 2 weeks.\nNext, the fruit harvested was subjected to sensory tests of sugar content and the like. As a result, it was determined that fruit of the plant applied with GSSG increased in sugar content compared to that of the plant not applied with GSSG or GSH. Further, it was determined that the plant applied with GSSG increased in number of fruit. It was determined that fruit of the plant applied with GSH increased in sugar content and acidity."}},
  "data": [
    {"substance": "oxidized glutathione [GSSG]", "values": [
      {"measurement": "sugar content of fruit (Brix), ANOVA versus fruit not applied", "setting": "Fragaria ananassa", "result": "significant difference"},
      {"measurement": "acidity of fruit (sensory test)", "setting": "Citrus unshiu [1]", "result": "decreased"},
      {"measurement": "sugar content of fruit (sensory test)", "setting": "Citrus unshiu [1]", "result": "increased"},
      {"measurement": "weight of fruit", "setting": "Citrus unshiu [1]", "result": "increased"},
      {"measurement": "sugar content of fruit (Brix)", "setting": "Citrus unshiu [2]", "result": "significantly improved"},
      {"measurement": "number of fruit", "setting": "[3]", "result": "increased"},
      {"measurement": "size of fruit", "setting": "[3]", "result": "increased"},
      {"measurement": "sugar content of fruit (sensory test)", "setting": "[3]; vs no GSSG", "result": "increased"},
      {"measurement": "sugar content of fruit (Brix) after application", "setting": "Lycopersicum esculentum [4]", "result": "rapidly improve"},
      {"measurement": "number of fruit", "setting": "Lycopersicum esculentum [5]", "result": "increased"},
      {"measurement": "sugar content of fruit (sensory test)", "setting": "Lycopersicum esculentum [5]; compared to plant not applied with GSSG or GSH", "result": "increased"}
    ]}
  ]
}
